Results on one substance are retold here after US20100113584A1, “NOVEL USE OF (-)-EPIGALLOCATECHIN GALLATE” (priority 2007, published 2010).

Test [1] has as its system skeletal muscle fibers of medial gastrocnemius muscle. Nature of the test: Fiber type quantification in medial gastrocnemius muscle (immune-histochemistry, cytochrome oxidase staining). Type of test: in vivo, mice. The conditions noted are these: 2 months. The text has this:
(§1) Male C57BL/6J mice (5 weeks old) were purchased from Charles River (Sulzfeld, Germany). All mice initially received a high-fat diet (Kliba#2154, Provimi Kliba AG, Kaiseraugst, Switzerland) for 3 months. Thereafter, mice were randomly assigned to 5 groups. • Group 1: Low-fat diet, restricted to cage normal activity (Low fat sedentary, n=11) • Group 2: High-fat diet, restricted to cage normal activity (High fat sedentary, n=11) • Group 3: High-fat diet containing 0.5% w/w EGCG, restricted to cage normal activity (High fat+EGCG sedentary, n=10) • Group 4: High-fat diet, free access to running wheel (High fat exercise, n=10) • Group 5: High-fat diet containing 0.5% w/w EGCG, free access to running wheel (High fat+EGCG exercise, n=10) The duration of the treatment was 2 months. During this period all mice received food and water ad libitum. Mice in groups 4 and 5 had unlimited access to running wheels (Technical & Scientific Equipment GmbH, Bad Homburg, Germany). Daily voluntary running wheel activity was monitored. At the end of the treatment period, maximal running performance on a rodent treadmill (Technical & Scientific Equipment GmbH, Bad Homburg, Germany) was determined. The Gastrocnemius muscles were excised, frozen in liquid nitrogen and stored at −80° C. for later quantification of the fiber type. In the medial gastrocnemius, skeletal muscle fibers were quantified as Type I, Type IIA, Type D/X, Type IIB by immune-histochemistry utilizing fiber specific antibodies and by histochemistry using a cytochrome oxidase staining.

The test system of another test is C57BL/6J mice. The experiment in a line: Daily voluntary running wheel activity of mice on high-fat diet. The test is classed as in vivo. The conditions noted are these: male C57BL/6J mice, high-fat diet containing 0.5% w/w EGCG, free access to running wheel, 2 months; P<0.004 vs high-fat diet alone.
Excerpt: as §1, with “During this period all mice received food and water ad libitum. Mice in groups 4 and 5 had unlimited access to running wheels (Technical & Scientific Equipment GmbH, Bad Homburg, Germany).” left out

Where [2] appears, read: High fat + EGCG (0.5% w/w) exercise (running wheel).
[3] abbreviates: High fat + EGCG (0.5% w/w) sedentary.

On to (−)-epigallocatechin gallate [EGCG], for which, in test [1] (setting [2]), the “Percentage of Type I fibers in medial gastrocnemius muscle” value is recorded as 12.8%, the “Percentage of Type IIa fibers in medial gastrocnemius muscle” value is recorded as 54.2%, the “Percentage of Type IIb fibers in medial gastrocnemius muscle” value amounted to 27.8% and the “Percentage of Type IId/x fibers in medial gastrocnemius muscle” value turned out to be 5.1%. Moreover, in test [1] (setting [3]), the “Percentage of Type I fibers in medial gastrocnemius muscle” value was found to be 12.5%, the “Percentage of Type IIa fibers in medial gastrocnemius muscle” value worked out at 53.5%, the “Percentage of Type IIb fibers in medial gastrocnemius muscle” value was 28.8% and the “Percentage of Type IId/x fibers in medial gastrocnemius muscle” value is reported as 5.2%. In addition, the “voluntary running wheel activity, average distance run per day” value in the test on C57BL/6J mice came out at 3140.3±43.3 m per day.
